System: Multiple myeloma cancer stem cell
Experiment: Cytotoxicity against human Myeloma-stem like cells
Type: functional, cell-based
Details: not given

Structure (SMILES) | IC50 [µM]
C=CCn1c(=O)c2cnc(Nc3ccc(N4CCN(C)CC4)cc3)nc2n1-c1cccc(C(C)(C)O)n1 [ADAVOSERTIB] | 0.31

System: not listed separately
Experiment: Cytotoxicity against human multiple myeloma cells by WST-1 assay
Type: functional, cell-based
Details: Multiple myeloma cell

Structure (SMILES) | IC50 [µM]
CC(=O)c1cc([N+](=O)[O-])c(Sc2cccc(Cl)c2Cl)s1 | 6
CN(CCCNC(=O)c1ccc2nc3c(c(Cl)c2c1)CCCC3)Cc1ccccc1 | 28.1
CCN(CCCNC(=O)c1ccc2nc3c(c(Cl)c2c1)CCCC3)Cc1ccccc1 | 22.6
N#C/C(=C/c1cccc(Br)n1)C(=O)NCc1cccc(CNC(=O)/C(C#N)=C\c2cccc(Br)n2)c1 | 0.24
CCc1c(-c2ccc3[nH]ncc3c2)cnc(N)c1-c1ccc(O)cc1 | 0.75
CCc1c(-c2ccc(C(=O)NC)nc2)cnc(N)c1-c1ccc(O)cc1 | 1.34
C=CC(=O)N1CC/C(=C\c2ccc(F)c([N+](=O)[O-])c2)C(=O)/C(=C/c2ccc(F)c([N+](=O)[O-])c2)C1 | 0.043
CCCSc1nc(NCCN)c2nnn(Cc3ccc(Cl)cc3)c2n1 | 1.1
O=C1c2ccccc2C(=O)c2oc(-c3cccnc3)nc21 | 0.1
CC(NC(=O)/C(C#N)=C/c1cccc(/C=C(\C#N)C(=O)NC(C)c2ccccc2)c1)c1ccccc1 (stereo not drawn) | 0.4
CS(=O)(=O)N1CCN(C(=S)Nc2ccc([N+](=O)[O-])cc2)CC1 | 33.9
CCCC(NC(=O)/C(C#N)=C/c1cccc(Br)n1)c1ccccc1 (stereo not drawn) | 1.6
CN(C)CCC(CSc1ccccc1)Nc1ccc(S(=O)(=O)NC(=O)c2ccc(N3CCN(Cc4ccccc4-c4ccc(Cl)cc4)CC3)cc2)cc1[N+](=O)[O-] (stereo not drawn) | < 0.5
O=C(CBr)N1CC([N+](=O)[O-])([N+](=O)[O-])C1 [NIBROZETONE] | 1.25

System: not listed separately
Experiment: Anticancer activity in human multiple myeloma cells
Type: functional, cell-based
Details: Multiple myeloma cell

IC50 [µM] | Structure (SMILES)
0.044 | O=C(/C=C\n1cnc(-c2cc(C(F)(F)F)cc(C(F)(F)F)c2)n1)NNc1cnccn1 [SELINEXOR]
0.0267 | CC1(C)CCC(CN2CCN(c3ccc(C(=O)NS(=O)(=O)c4ccc(NCC5CCOCC5)c([N+](=O)[O-])c4)c(Oc4cnc5[nH]ccc5c4)c3)CC2)=C(c2ccc(Cl)cc2)C1 [VENETOCLAX]

System: not listed separately
Experiment: Induction of mitotic arrest in human multiple myeloma cells
Type: functional, cell-based
Details: multiple myeloma cell

Structure (SMILES) | IC50 [µM]
O=[N+]([O-])c1ccc(O)c2ncccc12 [NITROXOLINE] | 5.25
c1cc(CN2CCCNCCNCCCNCC2)ccc1CN1CCCNCCNCCCNCC1 [PLERIXAFOR] | 0.027

Continued, values first:

IC50 [µM] | Structure (SMILES)
5 | CN(C)c1ccccc1CN1CCCN(Cc2ccccc2N(C)C)C1c1ccncc1
28.3 | Cc1ccc(CN(CC(O)COc2cccc3[nH]ccc23)C(C)(C)C)cc1 (stereo not drawn)
0.0061 | CON(C)C(=O)N1N=C(c2cc(F)ccc2F)S[C@@]1(CCCN)c1ccccc1 [FILANESIB]

System: Proteasome
Experiment: Inhibition of proteasome (unknown origin)
Type: subcellular, Homo sapiens
Details: not given

Structure (SMILES) | IC50 [µM]
CC[C@H](C)[C@H](NC(=O)[C@H]([C@@H](C)CC)N(C)C(C)=O)C(=O)N[C@H](C(=O)N[C@@H](CC(C)C)C(=O)[C@@]1(C)CO1)[C@@H](C)O [EPOXOMYCIN] | 0.261
CC(C)C[C@H](NC(=O)CNC(=O)c1cc(Cl)ccc1Cl)B(O)O [IXAZOMIB] | 0.005

More lines, now with the values ahead:

IC50 [µM] | Structure (SMILES)
0.26 | CC(=O)N[C@@H](CCc1ccccc1)C(=O)N[C@@H](CC(C)C)C(=O)N[C@@H](Cc1ccccc1)C(=O)N[C@@H](CC(C)C)C(=O)[C@]1(C)CO1
0.033 | CC(C)C[C@H](NC(=O)[C@H](CCc1ccccc1)NC(=O)CN1CCOCC1)C(=O)N[C@@H](Cc1ccccc1)C(=O)N[C@@H](CC(C)C)C(=O)[C@@]1(C)CO1 [CARFILZOMIB]
0.004 | NS(=O)(=O)OC[C@@H]1C[C@@H](n2ccc3c(N[C@H]4CCc5ccccc54)ncnc32)C[C@@H]1O [PEVONEDISTAT]

System: not listed separately
Experiment: Immunomodulatory activity in human MM cells
Type: functional, cell-based
Details: multiple myeloma cell

Structure (SMILES) | IC50 [µM]
Nc1cccc2c1CN(C1CCC(=O)NC1=O)C2=O (stereo not drawn) [LENALIDOMIDE] | 0.081
Nc1cccc2c1C(=O)N(C1CCC(=O)NC1=O)C2=O (stereo not drawn) [POMALIDOMIDE] | 0.035

Second part, the compound after the results:

IC50 [µM] | Structure (SMILES)
0.0003 | Cc1ccc(NC(=O)NCc2ccc3c(c2)CN(C2CCC(=O)NC2=O)C3=O)cc1Cl (stereo not drawn)
0.013 | O=C1CC[C@H](N2Cc3c(OCc4ccc(CN5CCOCC5)cc4)cccc3C2=O)C(=O)N1 [IBERDOMIDE]
194 | O=C1CCC(N2C(=O)c3ccccc3C2=O)C(=O)N1 (stereo not drawn) [THALIDOMIDE]
